How the values were obtained:
Sonnenblume Linie VK-119 = experiment: field test of chemical sterilisation of sunflower pollen; type: in vivo; details: Linie BK-119
Excerpt: (§1) Die gametozide Aktivität der erfindungsgemäßen Sterilisationsmittel war in Feldversuch in verschiedenen bodenklimatischen Zonen mit Teilstücken von 10 m^2 Größe in drei-- bis viermaliger Wiederholung nachgewiesen. Jedes Sterilisationsmittel wurde mindestens 5 Jahre lang geprüft.
(§2) Die Entwicklung der Perioden der Organogenese wird zytologisch überwacht. Die Behandlung von Pflanzen mit dem Sterilisationsmittel erfolgt am Anfang der fünften Periode der Organogenese nach Kupermann.
(§3) Zur Kontrolle der chemischen Sterilisation des Sonnenblumenpollens werden für jede Verbindung 45 behandelte Pflanzen jeder Wiederholung benutzt, wobei 15 Pflanzen zwecks Selbsbestäubung isoliert werden, Blutenkörbchen von 15 anderen Pflanzen mit einem Pollengemisch, gesammelt von 20 bis 25 behandelten isolierten Körbchen, bestäubt werden, und 15 Pflanzen für freie Bestäubung gelassen werden, damit das Ansetzen von Achänen mit dem Pollen der Vaterform kontrolliert werden kann.
(§4) Man beurteilt die Pollensterilität von Pflanzen der Sonnenblume nach der Pollenfertilität und -keimfahigkeit, nach den morphologischen Besonderheiten von Spermien und nach der Fähigkeit von Achänen zum Ansetzen bei der Bestäubung der behandelten isolierten Pflanzen mit dem Pollen der unbehandelten väterlischen Form. Die Läbensfähigkeit der Eizelle wird nach der Samenbildung bei behandelten Pflanzen bei freier Bestäubung der väterlichen Form bestimmt.
(§5) Pflanzen der Sonnenblume Sorte Peredovik werden in der V. Periode der Organogenese (nach Kupermann) mit einer 0,5%igen wäßrigen Emulsion von Phthalsäuredibutylester, Phthalsäurediäthylester, Kaliumsalz der 2-Methyl-3-zyklohexenkarbonsäu- re, Natriumsalz der 2-Methyl-3-zyklohexenkarbonsäure sowie mit einer 0,05%igen wäßrigen Emulsion von 2-Methyl-3-zyklo- hexenkarbonsäuremethylester behandelt. Die Emulsion enthält 0,01 Masse% Dimethylsulfoxid und 0,1 Masse% C12-C14-Kalziumalkylbenzolsulfonat. Die Sonnenblume Linie VK-119 werden mit einer 0,2%igen wäßrigen Emulsion von Phthalsäuredibutylester, 0,1%igen wäßrigen Emulsion von Phthalsäurediäthylester, Kaliumsalz der 2-Methyl-3-zyklohexenkarbonsäure, 1%igen wäßrigen Emulsion von Natriumsalz der. 2-Methyl-3-zyklohexen- karbonsäure und 0,01%igen wäßrigen Emulsion von 2-Methyl--3-zyklohexenkarbonsäuremethylester behandelt. Die Emulsion enthält 0,01 Masse% Dimethylformamid und 0,1 Masse% C12-C14--Kalziumalkylbenzolsulfonat.
(§6) Als Kontrolle in allen Fällen dienen Pflanzen, behandelt mit einem Verdünner ohne Sterilisationsmittel.

[1] = test system: Sonnenblume Sorte Peredovik; experiment: as above; type: in vivo; details: V. Periode
Excerpt: as §1, §2, §3, §4
as §5, with “Periode der Organogenese (nach Kupermann) mit einer 0,5%igen wäßrigen Emulsion von Phthalsäuredibutylester, Phthalsäurediäthylester, Kaliumsalz der 2-Methyl-3-zyklohexenkarbonsäu- re, Natriumsalz der 2-Methyl-3-zyklohexenkarbonsäure sowie mit einer 0,05%igen wäßrigen Emulsion von 2-Methyl-3-zyklo- hexenkarbonsäuremethylester behandelt.” left out
as §6

[2] = test system: tetraploidem Roggen Sorte Ukrainskaya; experiment: field test of gametocidal activity (sterilisation of anthers); type: in vivo; details: V. Periode, wäßrige Emulsion (concentration not given), 6 kg/ha; for Prozentsatz des Ansetzens der Körner bei freier Bestäubung: control = 100
Excerpt: as §1, §2
(§7) Mit dem Ahrenschieben verwirklicht man die Isolierung von Hauptähren und anderen Stockwerken in Pergamentbeuteln. Bei Weizen und Tritikale werden Einzelisolatoren verwendet. Bei Roggen schließt man je 1 Ähre von 5 bis 7 verschiedenen nebeneinander befindlichen Pflanzen in einen gemeinsamen Isolator ein. Bei Hirse wird jede Rispe getrennt isoliert. Der Sterilitätsprozentsatz (X) für Weizen, Roggen, Tritikale und Hirse wird nach der Formel [formula]
(§8) Samen von unbehandelten Kontrollpflanzen ermittelt.
(§9) Die Kornzahl in nicht isolierten Ähren von Kontrollpflanzen wird bedingt für 100% Ansetzen bei freier Bestäubung angenommen.
(§10) Um zuverlässige Angaben zu erhalten, verwendet man 20 bis 25 Isolatoren jeder Wiederholung für Weizen und Tritikale, 10 bis 15 Isolatoren jeder Wiederholung für Roggen und Hirse.
Pflanzen von tetraploidem Roggen Sorte Ukrainskaya werden in der V. Periode der Organogenese (nach Kupermann) mit einer wäßrigen Emulsion von Ammoniumsalz der 2-Methyl-3--zyklohexenkarbonsäure, Phthalsäurediäthylester, Kaliumsalz der Benzoesäure, Phthalsäurediisobutylester behandelt. Die Emulsion enthält 0,01 Masse% Dimethylformamid und 0,1 Masse% C12-C14-Kalziumalkylbenzolsulfonat. Der Verbrauch an Präparat beträgt 6 kg/ha. Als Kontrolle dienen Pflanzen, behandelt mit einem Verdünner ohne Sterilisationsmittel. Die Prüfergebnisse sind in der Tabelle 11 angeführt. […] Periode der Organogenese erhalten.

[3] = test system: Sommerweizens Sorte Botanicheskaya 4; experiment: as above; type: in vivo, Sommerweizen; details: V. Periode, 1%ige wäßrige Emulsion, 8 kg/ha; for Prozentsatz des Ansetzens der Körner bei freier Bestäubung: control = 100
Excerpt: as §1, §2, §7, §8, §9, §10
Pflanzen des Sommerweizens Sorte Botanicheskaya 4 werden in der V. Periode der Organogenese (nach kupermann) mit einer l%igen wäßrigen Emulsion von Phthalsäuredibutylester, Phthalsauredipropylester, Natriumsalz der 2-Methyl-3-zyklo- hexenkarbonsäure, 2-Methyl-3-zyklohexenkarbonsäuremethyl- ester behandelt. Die Emulsion enthalt 0,01 Masse% Tetrahydrofuran und 0,1 Masse% C12-C14-Kalziumalkylbenzolsulfonat. Der Verbrauch an Präparat beträgt 8 kg/ha. Als Kontrolle dienen Pflanzen, behandelt mit einem Verdünner ohne Sterilisationsmittel

[4] = test system: Sommerweizens Sorte Rodina; experiment: as above; type: in vivo, Sommerweizen; details: V. und VI. Periode, 1%ige wäßrige Emulsion, 6 kg/ha; for Prozentsatz des Ansetzens der Körner bei freier Bestäubung: control = 100
Excerpt: as §1, §2, §7, §8, §9, §10
Pflanzen des Sommerweizens Sorte Rodina werden in der V. und VI. Periode der Organogenese (nach Kupermann) mit einer l%igen wäßrigen Emulsion von Ammoniumsalz der 2-Methyl-3-zyklohexenkarbonsäure, Phthalsäuredihexylester, Phthalsäurediisobutylester behandelt. Die Emulsion enthält 0,01 Masse% Dodezysulfat und 0,1 Masse% C12-C14--Kalziumalkylbenzolsulfonat. Der Verbrauch an Präparat beträgt 6 kg/ha. Als Kontrolle dienen Pflanzen, behandelt mit einem Verdünner ohne Sterilisationsmittel.

[5] = test system: Tritikale der Sorte PRAG-109; experiment: as above; type: in vivo; details: V. Periode, 1%ige wäßrige Emulsion, 10 kg/ha
Excerpt: as §1, §2, §7, §8, §9, §10
Pflanzen Tritikale der Sorte PRAG-109 werden in der V. Periode der Organogenese (nach Kupermann) mit einer 1%igen wäßrigen Emulsion von Phthalsäuredibutylester, Phthalsäurediäthylester, Phthalsäuredihexylester, Phthalsäurediisobutylester, Kaliumsalz der 2-Methyl-3-zyklohexenkarbon- säure, 2-Methyl-3-zyklohexenkarbonsäuremethylester behandelt. Die Emulsion enthält 0,01 Masse% Dimethylsulfoxid und 0,1 Masse% C12C14- Kalziumalkylbenzolsulfonat. Der Verbrauch an Präparat beträgt 10 kg/ha. Als Kontrolle dienen Pflanzen, behandelt mit einem Verdünner ohne Sterilisationsmittel. […]
In allen Fällen dienen als Kontrolle Pflanzen, behandelt mit einem Verdünner ohne Sterilisationsmittel. Die Prüfergebnisse sind in der Tabelle 20 angeführt. […] Periode der Organogenese erhalten.

[6] = Präparat 0,05 Masse%, 0,3 kg/ha
[7] = Präparat 0,01 Masse%, 0,06 kg/ha

CC1C=CCCC1C(=O)O (centres unmarked) [Beispiel 110, Kaliumsalz der 2-Methyl-3-zyklohexenkarbonsäure]
Ansetzen der Achänen bei freier Bestäubung (Sonnenblume Linie VK-119; Präparat 0,1 Masse%, 0,6 kg/ha): 85,5 | Prozentsatz der Sterilität (Sonnenblume Linie VK-119; Präparat 0,1 Masse%, 0,6 kg/ha): 100,0%

COC(=O)C1CCC=CC1C (centres unmarked) [Beispiel 107, 2-Methyl-3-zyklo-hexenkarbonsäuremethylester]
Ansetzen der Achänen bei freier Bestäubung [1, 6]: 83,8 | Prozentsatz der Sterilität [1, 6]: 100,0%

CCOC(=O)c1ccccc1C(=O)OCC [Beispiel 57, Phthalsäurediäthylester]
Kornzahl der Ähre bei freier Bestäubung [2]: 30,7 | Kornzahl der Ähre im Isolator [2]: 0,0 | Prozentsatz der Sterilität [2]: 100,0% | Prozentsatz des Ansetzens der Körner bei freier Bestäubung [2]: 83,4%

CCCOC(=O)c1ccccc1C(=O)OCCC [Beispiel 31, Phthalsauredipropylester]
Kornzahl der Ähre bei freier Bestäubung [3]: 31,5 | Kornzahl der Ähre im Isolator [3]: 0,5 | Prozentsatz der Sterilität [3]: 98,5% | Prozentsatz des Ansetzens der Körner bei freier Bestäubung [3]: 84,2%

O=C(O)c1ccccc1 [Beispiel 58, Kaliumsalz der Benzoesäure]
Kornzahl der Ähre bei freier Bestäubung [2]: 35,8 | Kornzahl der Ähre im Isolator [2]: 4,2 | Prozentsatz der Sterilität [2]: 85,0% | Prozentsatz des Ansetzens der Körner bei freier Bestäubung [2]: 97,3%

CCCCCCOC(=O)c1ccccc1C(=O)OCCCCCC [Beispiel 35, Phthalsäuredihexylester]
Kornzahl der Ähre bei freier Bestäubung [4]: 33,6 | Kornzahl der Ähre im Isolator [4]: 0,0 | Prozentsatz der Sterilität [4]: 100,0% | Prozentsatz des Ansetzens der Körner bei freier Bestäubung [4]: 91,8%

CCCCOC(=O)c1ccccc1C(=O)OCCCC [Beispiel 103, Phthalsäuredibutylester]
Ansetzen der Achänen bei freier Bestäubung ([1]; Präparat 1,0 Masse%, 6,0 kg/ha): 82,3 | Prozentsatz der Sterilität ([1]; Präparat 1,0 Masse%, 6,0 kg/ha): 100,0%

CCOC(=O)c1ccccc1C(=O)OCC [Beispiel 109, Phthalsäurediäthylester]
Ansetzen der Achänen bei freier Bestäubung (Sonnenblume Linie VK-119; Präparat 0,1 Masse%, 0,6 kg/ha): 82,5 | Prozentsatz der Sterilität (Sonnenblume Linie VK-119; Präparat 0,1 Masse%, 0,6 kg/ha): 100,0%

CC(C)COC(=O)c1ccccc1C(=O)OCC(C)C [Beispiel 36, Phthalsäurediisobutylester]
Kornzahl der Ähre bei freier Bestäubung [4]: 31,7 | Kornzahl der Ähre im Isolator [4]: 0,0 | Prozentsatz der Sterilität [4]: 100,0% | Prozentsatz des Ansetzens der Körner bei freier Bestäubung [4]: 86,6%

CC1C=CCCC1C(=O)O (centres unmarked) [Beispiel 111, Natriumsalz der. 2-Methyl-3-zyklohexen-karbonsäure]
Ansetzen der Achänen bei freier Bestäubung (Sonnenblume Linie VK-119; Präparat 1,0 Masse%, 6,0 kg/ha): 85,0 | Prozentsatz der Sterilität (Sonnenblume Linie VK-119; Präparat 1,0 Masse%, 6,0 kg/ha): 100,0%

COC(=O)C1CCC=CC1C (centres unmarked) [Beispiel 33, 2-Methyl-3-zyklohexenkarbonsäuremethyl-ester]
Kornzahl der Ähre bei freier Bestäubung [3]: 34,2 | Kornzahl der Ähre im Isolator [3]: 0,0 | Prozentsatz der Sterilität [3]: 100,0% | Prozentsatz des Ansetzens der Körner bei freier Bestäubung [3]: 91,4%

CCCCOC(=O)c1ccccc1C(=O)OCCCC [Beispiel 30, Phthalsäuredibutylester]
Kornzahl der Ähre bei freier Bestäubung [3]: 30,6 | Kornzahl der Ähre im Isolator [3]: 0,2 | Prozentsatz der Sterilität [3]: 99,4% | Prozentsatz des Ansetzens der Körner bei freier Bestäubung [3]: 81,8% | Kornzahl der Ähre bei freier Bestäubung [5]: 66,8 | Kornzahl der Ähre im Isolator [5]: 1,0 | Prozentsatz der Sterilität [5]: 98,4% | Prozentsatz des Ansetzens der Körner bei freier Bestäubung ([5]; control = 100): 96,8%

CCCCOC(=O)c1ccccc1C(=O)OCCCC [Beispiel 108, Phthalsäuredibutylester]
Ansetzen der Achänen bei freier Bestäubung (Sonnenblume Linie VK-119; Präparat 0,2 Masse%, 1,2 kg/ha): 83,5 | Prozentsatz der Sterilität (Sonnenblume Linie VK-119; Präparat 0,2 Masse%, 1,2 kg/ha): 100,0%

CC1C=CCCC1C(=O)O.N (centres unmarked) [Beispiel 34, Ammoniumsalz der 2-Methyl-3-zyklohexenkarbonsäure]
Kornzahl der Ähre bei freier Bestäubung [4]: 30,8 | Kornzahl der Ähre im Isolator [4]: 0,0 | Prozentsatz der Sterilität [4]: 100,0% | Prozentsatz des Ansetzens der Körner bei freier Bestäubung [4]: 84,1%

COC(=O)C1CCC=CC1C (centres unmarked) [Beispiel 112, 2-Methyl--3-zyklohexenkarbonsäuremethylester]
Ansetzen der Achänen bei freier Bestäubung (Sonnenblume Linie VK-119; [7]): 85,0 | Prozentsatz der Sterilität (Sonnenblume Linie VK-119; [7]): 100,0%

CC(C)COC(=O)c1ccccc1C(=O)OCC(C)C [Beispiel 59, Phthalsäurediisobutylester]
Kornzahl der Ähre bei freier Bestäubung [2]: 34,7 | Kornzahl der Ähre im Isolator [2]: 0,0 | Prozentsatz der Sterilität [2]: 100,0% | Prozentsatz des Ansetzens der Körner bei freier Bestäubung [2]: 94,2%

CC1C=CCCC1C(=O)[O-].[Na+] (centres unmarked) [Beispiel 32, Natriumsalz der 2-Methyl-3-zyklo-hexenkarbonsäure]
Kornzahl der Ähre bei freier Bestäubung [3]: 32,9 | Kornzahl der Ähre im Isolator [3]: 1,0 | Prozentsatz der Sterilität [3]: 97,0% | Prozentsatz des Ansetzens der Körner bei freier Bestäubung [3]: 88,0%

CC1C=CCCC1C(=O)O (centres unmarked) [Beispiel 56, Ammoniumsalz der 2-Methyl-3--zyklohexenkarbonsäure]
Kornzahl der Ähre bei freier Bestäubung [2]: 32,1 | Kornzahl der Ähre im Isolator [2]: 0,0 | Prozentsatz der Sterilität [2]: 100,0% | Prozentsatz des Ansetzens der Körner bei freier Bestäubung [2]: 87,2%
